Measured values published in patent publication US10953015B2, “Use of adenosine receptor signaling to regulate P-gp function” (CORNELL UNIVERSITY, priority 2016, dated 2021).

Molecular target: T1, P-gp (Homo sapiens, UniProt P08183)
T1 construct: in human primary brain endothelial cells, HBMVEC, high P-gp expression was observed; host or cells: HBMVEC (primary human brain endothelial cells)
Assay: Rho123 uptake assay in primary human brain endothelial cells (HBMVEC)
Type: cell-based
Conditions: agonist 1 μM, Rho123 2.5 μM
Procedure: Human brain endothelial cells and primary brain endothelial cells were plated onto 48-well plates until 100% confluence was reached, and media were replaced with fresh media containing Rho123 (2.5 μM) with different concentrations of Lexiscan®, NECA, or PSC833. Reaction was halted by adding 250 μl of ice-cold PBS. Plate was washed with 250 μl of ice-cold PBS 3 times and lysed with lysis buffer. Each sample was analyzed using Synergy Fluometer (Biotek), with excitation at 488 nm and emission at 523 nm. Concentration of Rho123 was analyzed using standard curve created by serial dilution of Rho123. Final concentration of Rho123 was normalized using protein concentration of lysate measured using Bradford assay (Bio-Rad). For microscopic analysis of Rho123 uptake, cells were cultured on coverslip and Rho123 was treated with or without Lexiscan® or NECA with DMSO as control. Reaction was terminated by adding ice-cold PBS and washed with ice-cold PBS 3 times. Cells were fixed with PFA and costained with anti-human P-gp. Cells were visualized with a Zeiss fluorescent microscope and captured with axiovision software. FIG. 4G is a schematic illustration of the Rho123 uptake assay.

T1 sequence (P08183 whole entry): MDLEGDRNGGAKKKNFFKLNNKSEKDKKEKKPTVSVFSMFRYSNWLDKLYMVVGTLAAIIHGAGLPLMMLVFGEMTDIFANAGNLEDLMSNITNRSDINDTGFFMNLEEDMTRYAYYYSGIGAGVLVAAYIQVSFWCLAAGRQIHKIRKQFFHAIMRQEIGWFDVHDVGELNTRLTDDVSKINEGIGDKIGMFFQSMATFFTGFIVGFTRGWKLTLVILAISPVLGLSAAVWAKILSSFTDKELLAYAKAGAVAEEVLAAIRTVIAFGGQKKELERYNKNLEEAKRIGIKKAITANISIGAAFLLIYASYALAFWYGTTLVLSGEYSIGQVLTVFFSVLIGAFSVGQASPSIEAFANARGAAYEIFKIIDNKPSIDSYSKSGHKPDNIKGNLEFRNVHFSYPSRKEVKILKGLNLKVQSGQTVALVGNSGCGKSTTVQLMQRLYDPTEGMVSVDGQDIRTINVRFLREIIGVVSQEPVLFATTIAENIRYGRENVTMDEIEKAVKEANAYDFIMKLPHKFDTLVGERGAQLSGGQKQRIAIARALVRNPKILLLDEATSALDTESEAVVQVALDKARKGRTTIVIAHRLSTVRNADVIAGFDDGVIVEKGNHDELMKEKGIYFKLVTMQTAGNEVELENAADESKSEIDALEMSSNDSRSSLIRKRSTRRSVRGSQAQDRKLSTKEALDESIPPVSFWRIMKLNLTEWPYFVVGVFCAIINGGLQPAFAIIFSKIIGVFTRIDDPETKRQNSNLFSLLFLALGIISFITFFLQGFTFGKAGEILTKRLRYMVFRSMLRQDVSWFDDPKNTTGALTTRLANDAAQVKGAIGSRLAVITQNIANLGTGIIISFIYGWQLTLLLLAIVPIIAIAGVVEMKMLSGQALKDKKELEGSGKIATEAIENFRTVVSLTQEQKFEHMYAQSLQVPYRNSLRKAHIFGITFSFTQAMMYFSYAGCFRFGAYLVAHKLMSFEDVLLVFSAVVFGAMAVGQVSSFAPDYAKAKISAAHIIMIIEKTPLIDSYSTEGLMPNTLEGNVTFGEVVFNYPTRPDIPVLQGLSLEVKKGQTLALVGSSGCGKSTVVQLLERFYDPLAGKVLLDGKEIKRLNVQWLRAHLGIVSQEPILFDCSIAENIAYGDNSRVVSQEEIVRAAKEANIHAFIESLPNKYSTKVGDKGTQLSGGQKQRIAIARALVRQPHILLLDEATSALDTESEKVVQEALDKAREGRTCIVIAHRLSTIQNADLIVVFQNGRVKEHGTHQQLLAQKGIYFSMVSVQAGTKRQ

CCNC(=O)[C@H]1O[C@@H](n2cnc3c(N)ncnc32)[C@H](O)[C@@H]1O [NECA, (2S,3S,4R,5R)-5-(6-aminopurin-9-yl)-N-ethyl-3,4-dihydroxyoxolane-2-carboxamide]
Rho123 uptake / P-gp function: showed a trend in P-gp suppression, but it did not reach statistical significance
